Like-named read-outs stand apart in the source and are kept apart here.
How the values were obtained:
interleukin-2 (IL-2) = assay: Inhibition of interleukin-2 release in Jurkat T cells, ELISA; format: cell-based, human; conditions: Jurkat T cells stimulated with PMA and PHA, 18 h
Procedure: Human E6.1 Jurkat T cells were cultured in RPMI-1640 with 10% fetal bovine serum (FBS), 2 mM I-glutamine, and 1 mM Na-pyruvate. After serum starvation for 7 h, Jurkat cells were plated in 96 well culture plates at 1.25×10^5 cells/mL in RPMI-1640 (without phenol red) with 10% FBS. Cells were treated with phorbol 12-myristate 13-acetate (PMA, 1.25 ng/mL) and phytohemaglutinin (PHA, 0.25 μg/mL) to stimulate secretion of IL-2. Testing compound or DMSO vehicle was added to appropriate wells. […] Plates were then incubated for 18 h. Cell supernatants were collected (100 μL) and assayed for interleukin-2 (IL-2) by ELISA (Human IL-2 ELISA Kit, available from BD Biosciences, San Jose, Calif.). All test conditions were assayed in triplicate and verified with repeated experiments three times.

HIF-1 [1] = assay: ODD-Luc assay (luciferase reporter) for HIF-1 inhibitory activity; format: cell-based, mouse; conditions: read-out: HIF-1 inhibitory activity IC50; 4T1-ODD-Luc cells, 240 μM CoCl2, compounds 24 h
Procedure: The HIF-1 inhibitory of compound 1, 18, and the anti-diol diastereomer 22 were assessed with the ODD-Luc assay (Li, F.; Sonveaux, P.; Rabbani, Z. N.; Liu, S.; Yan, B.; Huang, Q.; Vujaskovic, Z.; Dewhirst, M. W.; Li, C. Y. Mol. Cell 2007, 26, 63-74, which is incorporated by reference). 4T1-ODD-Luc cells, stably transfected with the oxygen-dependent-degradation (ODD) domain of HIF-1α and a firefly luciferase reporter, were seeded in the 24-well plate at a density of 10^5 cells/well. After 16-hour incubation, cells were treated with 240 μM of Cobalt (II) Chloride (Sigma-Aldrich, St. Louis, Mo., USA) and serially diluted compounds for 24 h. To measure the luciferase signals, luciferin (150 mg/mL) was added and the plates were imaged using the Xenogen IVIS imaging system and associated Living Image software (Xenogen, Alameda, Calif.). Luciferase expression/activity was detected and quantified as relative light units (RLUs). Results are means±SD, n=3.
To determine HIF-1 inhibitory activity of 31 and 33, a luciferase-reporter based assay was used as a primary screen. […] Luciferase signals were detected and quantified as relative light units (RLUs).

HIF-1α protein = assay: Western blot of nuclear extracts, HIF-1α expression in 4T1 cells; format: cell-based, mouse
HIF-1α = assay: Western blot of nuclear extracts, HIF-1α expression in MDA-MB-231 cells; format: cell-based, human
VEGF = assay: HIF-1 regulated VEGF secretion, ELISA; format: cell-based, mouse; conditions: 4T1 cells, hypoxia 0.5% O2, 24 h
Text: Vascular endothelial growth factor (VEGF) is a gene that is highly involved in tumor progression as a pro-angiogenic factor.

4T1 cells = conditions: 24 h, highest concentration examined 10 μM
Procedure: Like MTT (3-(4,5-d imethylthiazol-2-yl)-2,5-diphenyltetrazolium bromide, a tetrazole), MTS was reduced into a formazan product by living cells in the presence of an electron coupling reagent (phenazine methosulfate, PMS). The absorbance of the formazan was detected at 490 nm. […] Then cells were washed and incubated another three hours with cell medium containing MTS/PMS solution at 37° C. (21% O2, 5% CO2). Relative cell survival rate was determined on the O.D. values measured at 490 nm.

[2] = system: 60 different human tumor cell lines; assay: NCI-60 DTP Human Tumor Cell Line Screen; format: cell-based
Procedure: The NCI-60 DTP Human Tumor Cell Line Screen utilized 60 different human tumor cell lines, representing leukemia, melanoma, and cancers of the lung, colon, brain, ovary, breast, prostate, and kidney. The screening was a two-stage process.
The human tumor cell lines of the cancer screening panel were grown in RPMI 1640 medium containing 5% fetal bovine serum and 2 mM L-glutamine. For a typical screening experiment, cells were inoculated into 96 well microtiter plates in 100 μL at plating densities ranging from 5,000 to 40,000 cells/well depending on the doubling time of individual cell lines.
After 24 h, two plates of each cell line were fixed in situ with TCA, to represent a measurement of the cell population for each cell line at the time of drug addition (Tz). […] At the time of drug addition, an aliquot of frozen concentrate was thawed and diluted to twice the desired final maximum test concentration with complete medium containing 50 μg/mL gentamicin. Additional four, 10-fold, or ½ log serial dilutions were made to provide a total of five drug concentrations plus control. Aliquots of 100 μL of these different drug dilutions were added to the appropriate microtiter wells already containing 100 μL of medium, resulting in the required final drug concentrations.
For adherent cells, the assay was terminated by the addition of cold TCA. Cells were fixed in situ by the gentle addition of 50 μL of cold 50% (w/v) TCA (final concentration, 10% TCA) and incubated for 60 minutes at 4° C. The supernatant was discarded, and the plates were washed five times with tap water and air dried. Sulforhodamine B (SRB) solution (100 μL) at 0.4% (w/v) in 1% acetic acid was added to each well, and plates were incubated for 10 minutes at room temperature. […] Bound stain was subsequently solubilized with 10 mM trizma base, and the absorbance was read on an automated plate reader at a wavelength of 515 nm. […] Using the seven absorbance measurements [time zero, (Tz), control growth, (C), and test growth in the presence of drug at the five concentration levels (Ti)], the percentage growth was calculated at each of the drug concentrations levels. Percentage growth inhibition was calculated as: [(Ti−Tz)/(C−Tz)]×100 for concentrations for which Ti>/=Tz [(Ti−Tz)/Tz]×100 for concentrations for which Ti<Tz.
Three dose response parameters were calculated for each experimental agent: GI50, TGI, and LC50. […] The drug concentration resulting in total growth inhibition (TGI) was calculated from Ti=Tz. […] Values were calculated for each of these three parameters if the level of activity was reached; however, if the effect was not reached or is exceeded, the value for that parameter was expressed as greater or less than the maximum or minimum concentration tested.

Athymic Nude mouse = assay: Non-tumored animal toxicity assay, single dose; format: in vivo; conditions: for Death Days / Survivors/Total at day 15: single dose
Procedure: All treatment was administered according to exact body weight. A single Athymic Nude mouse was given a single injection (IP) of 400 mg/kg; a second mouse received a dose of 200 mg/kg, and a third mouse received a single dose of 100 mg/kg. […] They were sacrificed if they lost more than 20% of their body weight or if there were other signs of significant toxicity. […] This process was repeated until a tolerated dose was found. This dose was then designated the maximum tolerated dose (MTD). The mice were allowed ad libitum feed and water. Injections were administered IP. Dose volumes were generally 0.1 mL/10 grams body weight but may be up to 0.2 mL/10 grams of body weight.

HIF-1 [3] = conditions: T47D cells, 10 μM 1,10-phenanthroline, 16 h; cited from earlier work
[4] = single dose 10 μM, leukemia, melanoma, and ovarian cancer

COc1ccc([C@H](O)[C@@H](C)Oc2ccc(C3OC(c4ccc(O[C@H](C)[C@@H](O)c5ccc(OC)c(OC)c5)c(OC)c4)[C@H](C)[C@H]3C)cc2OC)cc1OC (stereo partly drawn) [Compound 22]
release of interleukin-2 (interleukin-2 (IL-2)): inhibited

COc1ccc([C@@H](O)[C@@H](C)Oc2ccc(C3OC(c4ccc(O[C@H](C)[C@H](O)c5ccc(OC)c(OC)c5)c(OC)c4)[C@H](C)[C@H]3C)cc2OC)cc1OC (stereo partly drawn) [Compound 33]
IC50 (HIF-1 [1]): 47 nM

O=c1ccc2c(OCCCCc3ccccc3)c3ccoc3cc2o1 [Psora4, reference compound]
release of interleukin-2 (interleukin-2 (IL-2)): inhibited

COc1ccc([C@@H](O)[C@@H](C)Oc2ccc(C3OC(c4ccc(O[C@H](C)[C@H](O)c5ccc(OC)c(OC)c5)c(OC)c4)[C@H](C)[C@H]3C)cc2OC)cc1OC (stereo partly drawn) [manassantin A]
HIF-1α expression induced by CoCl2 (HIF-1α protein; 4T1 cells, 240 μM CoCl2 24 h, manassantin A 100 nM): inhibited | concentration significantly inhibiting hypoxia-induced nuclear expression of HIF-1α protein (HIF-1α protein; 4T1 cells, hypoxia 0.5% O2, 24 h): higher than 10 nM | expression of HIF-1 (HIF-1α protein; at the concentration 100 nM): completely inhibited | HIF-1α nuclear expression induced by CoCl2 (HIF-1α): inhibited | concentration significantly inhibiting VEGF induced by hypoxia (VEGF): higher than 10 nM | cell survival rate (4T1 cells): ~70% | tumor cell growth, trial 1 ([2]; single dose 10 μM, 48 h, SRB): reduced the growth of all tumors tested | lethality, trial 1 [2, 4]: more than 50% | lethality, trial 2 [2, 4]: more than 50% | tumor cell growth, trial 2 ([2]; trial 2, 48 h, SRB): reduced the growth of all tumors tested | Death Days (Athymic Nude mouse; Group 4, 100.00 mg/kg/dose IP): 0 | Survivors/Total at day 15 (Athymic Nude mouse; Group 4, 100.00 mg/kg/dose IP): 0/1 | Death Days (Athymic Nude mouse; Group 11, 12.50 mg/kg/dose IP): 0 | Survivors/Total at day 15 (Athymic Nude mouse; Group 11, 12.50 mg/kg/dose IP): 0/1 | Death Days (Athymic Nude mouse; Group 12, 1.56 mg/kg/dose IP): none | Survivors/Total at day 15 (Athymic Nude mouse; Group 12, 1.56 mg/kg/dose IP): 1/1 | Death Days (Athymic Nude mouse; Group 13, 3.13 mg/kg/dose IP): none | Survivors/Total at day 15 (Athymic Nude mouse; Group 13, 3.13 mg/kg/dose IP): 1/1 | Death Days (Athymic Nude mouse; Group 14, 6.25 mg/kg/dose IP): none | Survivors/Total at day 15 (Athymic Nude mouse; Group 14, 6.25 mg/kg/dose IP): 1/1 | toxicity (in words) (Athymic Nude mouse; levels of 6.25, 3.13, and 1.56 mg/kg/dose IP): non-toxic | toxicity (in words) (Athymic Nude mouse; levels of 12.50 and 100.00 mg/kg/dose IP): resulted in death | toxicity outcome at first dose levels (Athymic Nude mouse; single IP injection of 400, 200 and 100 mg/kg, one mouse each): all 3 mice had to be sacrificed | release of interleukin-2 (interleukin-2 (IL-2)): inhibited | Solubility (Group 4, 200.0 mg/mL in 100% DMSO): soluble, no | Solubility (Group 11, 25.0 mg/mL in 100% DMSO): soluble, no | Solubility (Group 12, 3.125 mg/mL in 100% DMSO): soluble, no | Solubility (Group 13, 3.125 mg/mL in 100% DMSO): soluble, no | Solubility (Group 14, 3.125 mg/mL in 100% DMSO): soluble, no | effect on iron chelator-induced HIF-1 activation (HIF-1 [3]): no significant effect
